According to US11571407B2, “Bicalutamide analogs or (S)-bicalutamide as exocytosis activating compounds for use in the treatment of a lysosomal storage disorder or glycogenosis” (BCN PEPTIDES, S.A., priority 2013, dated 2023):
Marks after values point to notes of the source that are not given here.

Key:
[1] = tested on: fibroblasts from patients affected by different lysosomal storage diseases; assay: Cell viability, MTT assay; type: cell-based, human; parameters: key to Decrease of Cell Viability (%): N.S.: non significant decrease; conditions: for Decrease of Cell Viability (%): 72 h
Protocol: (§1) Fibroblasts from thirteen patients affected by seven different lysosomal storage diseases (Fabry, Gaucher, Hurler, Niemann-Pick type A/B, Sanfilippo A, Sanfilippo B and Tay-Sachs) were cultured in DMEM (Dulbecco's modified Eagles medium) with 10% fetal bovine serum and in the presence of antibiotics (penicillin and streptomycin), at 37° C. with 5% CO2. All reagents were purchased from PAA Laboratories (Velizy-Villacoublay, France). The fibroblasts of the patients were selected on the basis of availability of fibroblasts and measurable residual activity. The use of human samples was approved by the Ethical Committee of Hospital Clinic, Barcelona
Fibroblasts of early passage (between 5 and 9 passages) were plated in 6- or 24-well plates depending on the test and were treated for 72 hours with increasing concentrations (10 nmol/L, 100 nmol/L, 1 μmol/L, 10 μmol/L, 50 μmol/L and 100 μmol/L) of bicalutamide (Sigma-Aldrich, St. Louis, USA) and (R)- and (S)-bicalutamide (Toronto Research Chemicals Inc., Toronto (Ontario), Canada). Cell viability was evaluated in each cell line for each concentration using the 3-[4,5-dimethylthiazol-2-yl]-2,5-diphenyl tetrazolium bromide (MTT) assay (Sigma-aldrich, St. Louis, USA) described by Sumantran V. N. Cellular chemosensitivity assays: an overview. Methods Mol. Biol. (2011), 731, 219-236.
Fibroblasts from thirteen patients with different lysosomal storage diseases (four patients affected by Sanfilippo B disease patients with different genotypes, three Sanfilippo A disease patients with different genotypes, two Tay-Sachs disease patients with the same genotype, one Gaucher disease patient, one Niemann-PickA/B disease patient, one Hurler disease patient and one Fabry disease patient) were independently treated with different concentrations of (R)- and (S)-bicalutamide (50 and 100 μM). Cell viability was evaluated for each treatment in each cell line using the MTT assay.

[2] = tested on: fibroblasts from patients affected by different lysosomal storage diseases; assay: Determination of lysosomal exocytosis (β-hexosaminidase activity in the culture medium); type: cell-based, human; conditions: for Increase in exocytosis (%), Median: Table 4 median over the patients' fibroblasts; for Increase in exocytosis (%), Median / Increase in exocytosis (%): 72 h
Protocol: as §1
Fibroblasts cultured for 72 h in 24 well-plates in the presence or absence of bicalutamide, (S)-bicalutamide, (S)-bicalutamide analogs or (R)-bicalutamide at different concentrations in triplicate (10 nmol/L, 100 nmol/L, 1 μmol/L, 10 μmol/L, 50 μmol/L and 100 μmol/L), were rinsed with physiological saline. The cells were lysed by using 3 freeze-thaw cycles. Then protein concentration was determined by using the Lowry method. Protein lysates (10 μg) were seeded in 96-well plates and the enzymatic activity of the enzyme involved in each disease was determined in triplicate by means of fluorimetric artificial substrates: 4-methylumbelliferyl-α-N-sulphoglucosaminide for Sanfilippo A, 4-methylumbelliferyl-2-acetamido-2 deoxy-α-D-glucopyranoside for Sanfilippo B, 4-methylumbelliferyl-α-L-iduronide for Hurler, 4-methylumbelliferyl-N-acetyl-β-D-glucosaminide for Tay-sachs, 4-methylumbelliferyl-β-D-glucopyranoside for Gaucher, 4-methylumbelliferyl-α-Galactopiranosid for Fabry disease, and 6-hexadecanoylamino-4-methylumbelliferyl-P-colline for Niemann-Pick type AB. The activity of the enzyme β-hexosaminidase was assayed by using 4-methylumbelliferyl-2 acetamido-2 deoxy-β-D-glucopyranoside as artificial substrate [Annunziata et al., Study of influence of sex and age on human serum lysosomal enzymes by using 4-methylumbelliferyl substrates. Clin. Chim. Acta.
Lysosomal exocytosis was monitorized by measuring the enzymatic activity of the lysosomal enzyme β-hexosaminidase in the culture medium [Xu M, et al, δ-Tocopherol reduces lipid accumulation in Niemann-Pick type C1 and Wolman cholesterol storage disorders. […] The fibroblasts were previously treated with different concentrations of bicalutamide, (S)-bicalutamide or (R)-bicalutamide (10 nmol/L, 100 nmol/L, 1 μmol/L, 10 μmol/L, 50 μmol/L and 100 μmol/L) in triplicate in 24-well plates. At 0, 24, 48 and 72 hours, 30 μL of culture medium was aliquoted for the subsequent β-hexosaminidase activity assay.
Fibroblasts from two patients affected by Sanfilippo B and Hurler diseases were treated with different concentrations of bicalutamide (racemic mixture at increasing concentrations of 0.01, 0.1, 1, 10 and 100 μM). And the increase in lysosomal exocytosis was determined by analyzing the enzymatic activity of the lysosomal enzyme β-hexosaminidase in the culture medium.
Fibroblasts from thirteen patients affected by different lysosomal storage diseases (four Sanfilippo B disease patients with different genotypes, three Sanfilippo A disease patients with different genotypes, two Tay-Sachs disease patients with the same genotype, one Gaucher disease patient, one Niemann-pick type A/B disease patient, one Hurler disease patient, and one Fabry disease patient) were independently treated with different concentrations of (R)- and (S)-bicalutamide (50 and 100 μM) for 72 hours.

androgen receptors = conditions: cited from earlier work

SMILES: C[C@@](O)(CS(=O)(=O)c1ccc(F)cc1)C(=O)Nc1ccc(C#N)c(C(F)(F)F)c1 [(S)-BICALUTAMIDE (1), (2S)-N-[4-cyano-3-(trifluoromethyl)phenyl]-3-[(4-fluorophenyl)sulfonyl]-2-hydroxy-2-methylpropanamide]
- Decrease of Cell Viability (%) ([1]; Table 3 patient 1, Sanfilippo B fibroblasts, 50 μM): 0%
- Decrease of Cell Viability (%) ([1]; Table 3 patient 1, Sanfilippo B fibroblasts, 100 μM): 0%
- Decrease of Cell Viability (%) ([1]; Table 3 patient 2, Sanfilippo B fibroblasts, 50 μM): 0%
- Decrease of Cell Viability (%) ([1]; Table 3 patient 2, Sanfilippo B fibroblasts, 100 μM): 0%
- Decrease of Cell Viability (%) ([1]; Table 3 patient 3, Sanfilippo B fibroblasts, 50 μM): 0%
- Decrease of Cell Viability (%) ([1]; Table 3 patient 3, Sanfilippo B fibroblasts, 100 μM): 0%
- Decrease of Cell Viability (%) ([1]; Table 3 patient 4, Sanfilippo B fibroblasts, 50 μM): 0%
- Decrease of Cell Viability (%) ([1]; Table 3 patient 4, Sanfilippo B fibroblasts, 100 μM): N.S.
- Decrease of Cell Viability (%) ([1]; Table 3 patient 5, Sanfilippo A fibroblasts, 50 μM): 0%
- Decrease of Cell Viability (%) ([1]; Table 3 patient 5, Sanfilippo A fibroblasts, 100 μM): 0%
- Decrease of Cell Viability (%) ([1]; Table 3 patient 6, Sanfilippo A fibroblasts, 50 μM): 0%
- Decrease of Cell Viability (%) ([1]; Table 3 patient 6, Sanfilippo A fibroblasts, 100 μM): 0%
- Decrease of Cell Viability (%) ([1]; Table 3 patient 7, Sanfilippo A fibroblasts, 50 μM): 0%
- Decrease of Cell Viability (%) ([1]; Table 3 patient 7, Sanfilippo A fibroblasts, 100 μM): 0%
- Decrease of Cell Viability (%) ([1]; Table 3 patient 8, Tay-Sachs fibroblasts, 50 μM): 0%
- Decrease of Cell Viability (%) ([1]; Table 3 patient 8, Tay-Sachs fibroblasts, 100 μM): 0%
- Decrease of Cell Viability (%) ([1]; Table 3 patient 9, Tay-Sachs fibroblasts, 50 μM): 0%
- Decrease of Cell Viability (%) ([1]; Table 3 patient 9, Tay-Sachs fibroblasts, 100 μM): N.S.
- Decrease of Cell Viability (%) ([1]; Table 3 patient 10, Gaucher fibroblasts, 50 μM): N.S.
- Decrease of Cell Viability (%) ([1]; Table 3 patient 10, Gaucher fibroblasts, 100 μM): N.S.
- Decrease of Cell Viability (%) ([1]; Table 3 patient 11, Niemann-Pick AB fibroblasts, 50 μM): N.S.
- Decrease of Cell Viability (%) ([1]; Table 3 patient 11, Niemann-Pick AB fibroblasts, 100 μM): N.S.
- Decrease of Cell Viability (%) ([1]; Table 3 patient 12, Hurler fibroblasts, 50 μM): 0%
- Decrease of Cell Viability (%) ([1]; Table 3 patient 12, Hurler fibroblasts, 100 μM): 0%
- Decrease of Cell Viability (%) ([1]; Table 3 patient 13, Fabry fibroblasts, 50 μM): 0%
- Decrease of Cell Viability (%) ([1]; Table 3 patient 13, Fabry fibroblasts, 100 μM): 0%
- decrease of cell viability (in words) ([1]; thirteen fibroblast cultures, 50 and 100 μM): did not show any significant decrease of cell viability
- Increase in exocytosis (%), Median ([2]; 50 μM): 114* %
- Increase in exocytosis (%), Median ([2]; 100 μM): 124* %
- Increase in exocytosis (%) ([2]; Table 4 patient 1, Sanfilippo B fibroblasts, 50 μM): N.S.
- Increase in exocytosis (%) ([2]; Table 4 patient 1, Sanfilippo B fibroblasts, 100 μM): N.S.
- Increase in exocytosis (%) ([2]; Table 4 patient 2, Sanfilippo B fibroblasts, 50 μM): N.S.
- Increase in exocytosis (%) ([2]; Table 4 patient 2, Sanfilippo B fibroblasts, 100 μM): 166* %
- Increase in exocytosis (%) ([2]; Table 4 patient 3, Sanfilippo B fibroblasts, 50 μM): N.S.
- Increase in exocytosis (%) ([2]; Table 4 patient 3, Sanfilippo B fibroblasts, 100 μM): N.S.
- Increase in exocytosis (%) ([2]; Table 4 patient 4, Sanfilippo B fibroblasts, 50 μM): 33* %
- Increase in exocytosis (%) ([2]; Table 4 patient 4, Sanfilippo B fibroblasts, 100 μM): 28* %
- Increase in exocytosis (%) ([2]; Table 4 patient 5, Sanfilippo A fibroblasts, 50 μM): 72* %
- Increase in exocytosis (%) ([2]; Table 4 patient 5, Sanfilippo A fibroblasts, 100 μM): 39* %
- Increase in exocytosis (%) ([2]; Table 4 patient 6, Sanfilippo A fibroblasts, 50 μM): 70* %
- Increase in exocytosis (%) ([2]; Table 4 patient 6, Sanfilippo A fibroblasts, 100 μM): 64* %
- Increase in exocytosis (%) ([2]; Table 4 patient 7, Sanfilippo A fibroblasts, 50 μM): 121* %
- Increase in exocytosis (%) ([2]; Table 4 patient 7, Sanfilippo A fibroblasts, 100 μM): 109* %
- Increase in exocytosis (%) ([2]; Table 4 patient 8, Tay-Sachs fibroblasts, 50 μM): N.S.
- Increase in exocytosis (%) ([2]; Table 4 patient 8, Tay-Sachs fibroblasts, 100 μM): 127* %
- Increase in exocytosis (%) ([2]; Table 4 patient 9, Tay-Sachs fibroblasts, 50 μM): N.S.
- Increase in exocytosis (%) ([2]; Table 4 patient 9, Tay-Sachs fibroblasts, 100 μM): 124* %
- Increase in exocytosis (%) ([2]; Table 4 patient 10, Gaucher fibroblasts, 50 μM): N.S.
- Increase in exocytosis (%) ([2]; Table 4 patient 10, Gaucher fibroblasts, 100 μM): N.S.
- Increase in exocytosis (%) ([2]; Table 4 patient 11, Niemann-Pick AB fibroblasts, 50 μM): 114* %
- Increase in exocytosis (%) ([2]; Table 4 patient 11, Niemann-Pick AB fibroblasts, 100 μM): 60* %
- Increase in exocytosis (%) ([2]; Table 4 patient 12, Hurler fibroblasts, 50 μM): 13629* %
- Increase in exocytosis (%) ([2]; Table 4 patient 12, Hurler fibroblasts, 100 μM): 5949* %
- Increase in exocytosis (%) ([2]; Table 4 patient 13, Fabry fibroblasts, 50 μM): 5402* %
- Increase in exocytosis (%) ([2]; Table 4 patient 13, Fabry fibroblasts, 100 μM): 3432* %
- cell cultures with significantly increased lysosomal exocytosis ([2]; thirteen patient fibroblast cultures, 50 and 100 μM, 72 hours): ten of the thirteen
- anti-androgenic activity (androgen receptors): inactive
